Test: Half life in mouse plasma
Type: ADME, cell-free

- half-life: 18.3 min
Structure (SMILES): C[C@H](CC#CC(C)(C)O)[C@H]1CC[C@@H]2/C(=C/C=C3C[C@@H](O)C[C@H](O)C3)CCC[C@@]21C [INECALCITOL]

Source: ChEMBL document CHEMBL5230105, “Vitamin D and its analogs as anticancer and anti-inflammatory agents” (Eur J Med Chem, 2020)
